ChEMBL document CHEMBL1212907, “Activity of physalin F in a collagen-induced arthritis model” (J Nat Prod, 2010)
Active and inactive are the calls of the source. The calls are words filed in the database; no cut-off is given here.

Experiments:
Type in all cases: functional, organism-based
[1] = system: Mus musculus; assay: Immunomodulatory activity in ip dosed mouse lung assessed as reduction of eosinophils in bronchoalveolar lavage fluid
[2] = system: Mus musculus; assay: Antiinflammatory activity against collagen-induced arthritis in po dosed mouse assessed as inhibition of paw edema at 20 mg/kg, po after 20 days; parameters: dose 20 mg/kg
[3] = organism: Mus musculus; assay: Immunomodulatory activity in mouse assessed as reduction in ovalbumin-induced TH2 cytokine secretion by ELISA
[4] = system: Mus musculus; assay: Immunomodulatory activity in ip dosed mouse lung assessed as reduction in modulation of mucus production at 60 mg/kg; parameters: dose 60 mg/kg
[5] = system: Mus musculus; assay: Antiinflammatory activity against collagen-induced arthritis in po dosed mouse assessed as synovial cell hyperplasia after 20 days
[6] = system: Mus musculus; assay: Immunomodulatory activity in ip dosed mouse lung assessed as reduction in inhibition of ovalbumin-induced intense cell filtration
[7] = system: Mus musculus; assay: Immunomodulatory activity in mouse assessed as inhibition of allergic airway inflammation at 60 mg/kg, ip; parameters: dose 60 mg/kg

Row | Compound | Activity [1] | inhibition [2] | Activity [3] | Activity [4] | Activity [5] | inhibition [6] | inhibition [7]
1 | C[C@@H]1C[C@H]2[C@@H]3CCC4=CC(=O)C=C[C@]4(C)[C@@]3(F)[C@@H](O)C[C@]2(C)[C@@]1(O)C(=O)CO | Active | – | – | – | – | – | –
2 | C[C@@]12C[C@H]3OC(=O)[C@@H]1CO[C@]14O[C@]5([C@H]2C1=O)[C@@](O)(CC[C@H]1[C@H]4C[C@H]2O[C@]24CC=CC(=O)[C@]14C)C(=O)O[C@@]35C | inactive | Active | inactive | inactive | Active | Active | inactive
